Values joined by “and” are separate entries in the source; they are usually repeats but may differ in a detail not shown here. Identical values can stand only once.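 The compound was tested at five concentrations on cells cultured in 96-well plates, with a 48-hour exposure period. At the GI50, growth is halved. TGI marks complete inhibition of growth.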
Experiments:
Assay in all cases: DTP human tumour cell line panel, 48 h
[1] = test system: TK-10 renal
[2] = test system: SK-MEL-2 melanoma
[3] = test system: SK-MEL-28 melanoma
[4] = test system: RPMI-8226 leukemia
[5] = test system: CAKI-1 renal
[6] = test system: HOP-92 NSCLC
[7] = test system: SN12C renal
[8] = test system: A549 NSCLC
[9] = test system: T-47D breast
[10] = test system: 786-0 renal

Row | SMILES | GI50 [1] [µM] | TGI [1] | GI50 [2] [µM] | TGI [2] [µM] | GI50 [3] [µM] | TGI [3] | GI50 [4] [µM] | TGI [4] [µM] | GI50 [5] [µM] | TGI [5] [µM] | GI50 [6] [µM] | TGI [6] [µM] | GI50 [7] [µM] | TGI [7] | GI50 [8] [µM] | TGI [8] | GI50 [9] [µM] | TGI [9] [µM] | GI50 [10] [µM] | TGI [10]
1 | CN1CCN(CC(O)COc2c(Br)c(Br)c(Br)c3c2OC(C)(C)C3)CC1 (stereo unspecified) | 15 | 37.7 µM | 10.2 | 25.2 | 1.85 | 3.48 µM | 1.8 | 4.44 | 14.5 | 38.1 | 3.1 | 12.2 | 11.8 | 31.6 µM | 10.6 | 30.4 µM | 12.6 | 38.5 | 3.08 | 14.6 µM
2 | CC1(C)CCC[C@]2(C)[C@@H](C=O)C(C=O)=CC[C@@H]12 |  | 74 µM |  | 39.7 |  | > 100 µM |  | 31.4 |  | 23.1 |  | 53 |  | 39.9 µM |  | > 100 µM |  | 60.3 |  | > 100 µM
3 | CN1CCC(n2cnc(-c3ccc(F)cc3)c2-c2ccnc(N)n2)CC1 | 7.89 | > 25 µM | > 25 | > 25 | > 23.8 | > 25 µM | 16.6 | > 25 | 7.63 | > 24.1 | 3.99 | 24 | 6.43 | > 25 µM | 7.47 | > 25 µM | 16 | > 25 | 11.6 | > 25 µM
4 | Nc1ccc(-c2nc3ccccc3[nH]2)c2ccccc12 | 7.24 | > 100 µM | 14.2 | > 100 | 4.27 | > 62.1 µM | 2.64 | > 37 | 2.23 | > 53.7 | 1.57 | 9.61 | 10.1 | 59.7 µM | 6.6 | 50.3 µM | 11.6 | > 61.6 | 4.02 | > 41.4 µM
5 | C/C1=C\[C@@H](O)C(=O)/C=C/C=C\c2csc(n2)[C@@H](C)NC(=O)C[C@@]2(CC1)S(=O)SC(=O)[C@]2(C)O (stereo partly specified) | 0.0131 | 0.861 µM and 0.138 µM |  | 0.0148 |  | 0.0727 µM and 0.0168 µM | > 100 | > 100 |  | 0.0191 |  | 0.011 |  | 0.0882 µM and 0.0192 µM |  | 0.713 µM and 0.368 µM |  | 0.0217 |  | 0.0354 µM and 0.0108 µM
6 | COC12c3ccccc3-c3ccccc3C1[C@H]1C(=O)OC(=O)[C@H]12 (stereo partly specified) |  | > 10 µM |  | > 10 |  | > 10 µM |  | > 10 |  | > 10 |  | > 10 |  | > 10 µM |  |  |  | > 10 |  | > 10 µM
7 | BrCc1ccc(CBr)cc1 | 1.58 | 5.99 µM |  |  | 8.29 | 23.3 µM | 3.1 | 13.3 | 1.99 | 6.92 | 18.7 | 53.7 | 2.2 | 6.27 µM | 21.7 | 76.8 µM | 12.7 | 48.8 | 2.59 | 8.63 µM
8 | CC1(C)N=C(N)N=C(N)N1c1ccc(CCCCc2ccc(S(=O)(=O)F)cc2)c(Cl)c1 | 0.848 | 20.3 µM | 2.48 | 20.7 | 0.85 | 20.8 µM | 0.283 | 13 | 0.79 | > 100 | 5.56 | 26.1 | 0.189 | 16.2 µM | 0.334 | > 44.8 µM | 2.05 | 15.2 | 0.224 | 19.3 µM
9 | C[CH2][Pb]([CH2]C)([CH2]C)[O]C(=O)c1ccc2ccccc2n1 |  |  | > 10 | > 10 | > 10 | > 10 µM | > 10 | > 10 | > 10 | > 10 | > 10 | > 10 | > 10 | > 10 µM | > 10 | > 10 µM | > 10 | > 10 | > 10 | > 10 µM
10 | CCN1C(=O)N(CC)C2C1NN=c1s/c(=C3\C(=O)N(CCc4ccccc4)c4ccccc43)c(=O)n12 (stereo unspecified) | 4.22 | 29.2 µM | 1.26 | 12.3 | 1.2 | > 28.4 µM | 0.608 |  | 0.65 | 3.11 | 2.55 | 15.6 | 1.34 |  | 0.638 | > 39.5 µM | 1.19 | > 23.9 | 1.04 | 13.5 µM
11 | CC(C)(C)CN1CCn2c(nc3c(N)nccc32)S1 | 16.6 | > 100 µM | 69.3 | > 100 | 13.5 | 29.7 µM | 36.1 | > 100 | 25.3 | > 100 | 96.5 | > 100 | 6.55 | > 100 µM | 8.09 | 44.4 µM | 13 | > 100 | 21 | > 100 µM
12 | COc1ccc(/C=N/NC(=O)Cn2c(-c3ccc(S(C)(=O)=O)cc3)nc3cc(Cl)ccc32)cc1 | 4.7 | > 50 µM | 1.13 | > 50 | 4.48 | > 50 µM | 1.43 | 11.4 | 4.14 | > 50 | 1.52 | > 50 | 2.59 | > 50 µM | 1.97 | > 50 µM | 3.22 | > 50 | 1.66 | > 50 µM
13 | Cc1cccc(NC(=O)c2sc3nc4c(cc3c2N)CN(Cc2ccccc2)CC4)c1C | 5.36 | > 50 µM | 0.328 | 25.8 | 4.06 | > 50 µM | 0.198 | > 50 |  |  | 0.736 | 47.3 | 0.313 | > 50 µM | 0.381 | > 50 µM | 0.226 | > 50 | 0.197 | 28.5 µM
14 | c1ccc2c3c([nH]c2c1)C1CCCN1CC3 (stereo unspecified) |  | > 10 µM |  | > 10 |  | > 10 µM |  | > 10 |  | > 10 |  | > 10 |  | > 10 µM |  |  |  | > 10 |  | > 10 µM
15 | CCN(Cc1ccc(Cl)s1)c1ccc(CO)c(Cl)c1 | 0.0452 | 0.221 µM | 2.02 | 13.7 | 11.8 | 25.4 µM | 1.41 | 24.5 | 2.27 | 34.6 | 0.563 | 15.1 | 7.08 | 22.3 µM | 1.08 | 18.7 µM | 0.121 | 0.582 | 2.99 | 21.2 µM
16 | CCN1C(=O)N(CC)C2C1NN=c1s/c(=C\c3ccccc3Br)c(=O)n12 (stereo unspecified) | 12.5 | > 100 µM | 0.308 | 25.5 | 7.19 | 25 µM | 0.0333 | 8.76 | 0.0242 | 26.3 | 0.37 | 44.7 | 0.0519 | 31.2 µM | 0.0408 | > 75.3 µM | 13.5 | 57.9 | 0.0525 | 37 µM
17 | COc1ccc(OC)c(Cn2cc3c(c2)-c2oncc2CC3)c1 | 4.23 | > 100 µM | 2.03 | 7.62 | 5.09 | > 100 µM | 3.39 | > 27.9 | 2.73 | > 100 | 3.25 | 57.8 | 5.97 | > 100 µM | 4.42 | > 100 µM | 7.1 | > 100 | 5.49 | > 63.6 µM
18 | CC(C)=CCC/C(C)=C/CC/C(C)=C/CC/C=C(\C)CC/C=C(\C)CCC(=O)Nc1ccn(C2OC(CO)C(O)C2(F)F)c(=O)n1 (stereo unspecified) | 3.05 | 18.8 µM | 0.0183 | 1.28 | 2.64 | 21.9 µM | 0.122 | 2.49 | 0.042 | 9.85 | 0.435 | 11.5 | 0.326 | 13.1 µM | 0.344 | 28.3 µM | 0.089 | 11.8 | < 0.0157 | < 0.0341 µM
19 | CC(=O)c1c(C(F)(F)F)n([O-])c2ccc(C)cc2[n+]1=O | 5.07 | > 50.5 µM | 15.5 | > 66.5 | 23.3 | > 100 µM | 0.686 | 4.04 | 3.46 | 24.6 | 1.11 | 4.81 | 1.5 | 4.72 µM | 4.48 | 26.6 µM | 6.52 | > 67.1 | 1.47 | 4.7 µM
20 | COc1ccc2cc(-c3c(-c4ccncc4)nc(-c4ccc(S(C)=O)cc4)n3C)ccc2c1 (stereo unspecified) | > 21.8 | > 25 µM | > 25 | > 25 | 24.2 | > 25 µM | 17 | > 25 | 19.4 | > 25 | 5.67 | > 25 | 18 | > 25 µM | > 25 | > 25 µM | 7.92 | 24.6 | 16.7 | > 25 µM
21 | O=C(Oc1cccnc1)c1ccsc1Nc1ccnc(C(F)(F)F)c1 | 4.91 | 93.7 µM | 4.19 | > 100 | 6.28 | 39.9 µM | 6.45 | 51.8 | 3.82 | > 100 | 3.14 | 46.5 | 4.44 | > 100 µM | 7.68 | > 100 µM | 13.8 | 68 | 53 | > 100 µM
22 | Nc1ccccc1SCc1csc(-c2ccc(Cl)cc2)n1 |  | > 100 µM |  | 35.2 |  | > 94.5 µM |  | 44.7 |  | > 100 |  | 60.1 |  | 34.2 µM |  | > 100 µM |  | 23.4 |  | 47.5 µM
23 | O=C1NC(=O)C(c2cccc(Cl)c2)=C1Nc1ccc(O)c(Cl)c1 | 8.66 | > 25 µM | 7.91 | 22.5 | 13.7 | > 25 µM | 14 | > 25 | 7.72 | > 25 | 5.76 | > 25 | 9.42 | > 25 µM | 9.88 | > 25 µM | 7.98 | > 23.1 | 12.1 | > 25 µM
24 | Cc1ccc2nc(NC(=O)/C(Cc3nc4ccc(Cl)cc4[nH]c3=O)=N\NC(C)(C)C)sc2c1 |  |  |  | > 100 |  | > 100 µM |  | > 100 |  | 89.7 |  | > 100 |  | > 100 µM |  | > 100 µM |  | > 100 |  | > 100 µM
25 | O=C(Nc1cccc(Nc2ncc(Br)c(NCCc3cnc[nH]3)n2)c1)N1CCCC1 | 3.87 | 20 µM | 5.31 | 19.4 | 8.6 | 28.6 µM | 3.9 | 19.5 | 7.14 | 33.2 | 0.932 | 7.93 | 2.88 | 33.6 µM | 7.56 | > 67.1 µM | 4.43 | 25.5 | 9.36 | 32.6 µM
26 | COC1O[C@@H]2C[C@H]3C(C)(C)CCC[C@]3(C)C3=CCCC1[C@@]32C (stereo partly specified) | > 100 | > 100 µM |  |  | > 100 | > 100 µM | > 100 | > 100 |  |  | > 100 | > 100 | > 100 | > 100 µM | > 100 | > 100 µM | > 100 | > 100 | > 100 | > 100 µM
27 | CN1CCN(Cc2ccc(NC(=O)c3[nH]ncc3Nc3ncnc4sc5c(c34)CCCC5)cc2)CC1 | 1.14 | 2.4 µM | 0.665 | 3.22 | 0.512 | 2.08 µM | 0.37 | 1.04 |  |  | 1.48 | 4.81 | 0.0425 | 1.22 µM |  |  | 0.457 | 13.5 | 0.365 | 1.9 µM
28 | CC(=O)Oc1ccccc1C(=O)/C=C/c1cccc([N+](=O)[O-])c1 |  |  | 15.1 | 29.4 | 5.56 | 21.2 µM | 3.18 | 16.1 | 2.95 | 14.9 | 7.91 | 22.5 | 2.53 | 6.79 µM | 5.48 | 23.3 µM | 10.8 | 44 | 1.83 | 3.6 µM
